Assay results taken from article PMC6222847, “Application of HPCCC Combined with Polymeric Resins and HPLC for the Separation of Cyclic Lipopeptides Muscotoxins A–C and Their Antimicrobial Activity” (Molecules : A Journal of Synthetic Chemistry and Natural …, 2018).
In brackets after ≈: the same amount, converted by molar mass. *1 amine or outer side, *2 acyl side, *3 side chain or, on linkers, in order; H or OH if unused. Where a SMILES comes first, the peptide text is derived from it. [ ]: non-standard residue; d: D form. X1 = CCCCCC(O)CC(N[*:1])C(O)C(=O)[*:2]; X2 = CC1C[C@@H](C(=O)[*:2])N([*:1])C1; d(aIle) = CC[C@H](C)[C@@H](N)C(=O)O; Dhb = C/C=C(\N)C(=O)O

What was measured:
Bacillus subtilis = assay: Broth two-fold microdilution; format: cell-based; settings: B. subtilis CCM1999; Mueller Hinton broth, 300–0.0732 µg/mL (control 32–0.0625), 37 °C 16 h, triplicate; MIC = least concentration showing any inhibition in the growth
Description: Furthermore, compound 1 was evaluated for its antimicrobial activity against five bacterial isolates; S. aureus (CCM3824), B. subtilis (CCM1999), S. sanguinis (CCM4047), P. aeruginosa (CCM1959), E. coli (CCM2024), and eight fungal isolates; C. friedrichii (BCC020_2879), A. fumigatus (BCC020_2845), F. oxysporum (BCC020_2866), T. harzianum (BCC020_0606), B. sorokiniana (BCC020_1571), M. cucumerina (BCC020_2872), C. globosum (BCC020_2527), and A. alternata (BCC020_0609) using broth two-fold microdilution method following the standard protocol. Briefly, for broth microdilution method, the compounds were serially diluted at varying concentrations between 300 and 0.0732 µg/mL in Mueller Hinton broth (for bacteria) and Muller Hinton broth with 2% glucose (for fungi) in 96-well plates. Culture broth (0.1 mL) was added to each well containing the compound. […] MIC95 was determined as the concentration required to inhibit or kill 95% of bacterial isolates spectroscopically at 600 nm. Minimum fungicidal concentration (MFCs) were determined after 48 h incubation by removing 10 µL of the contents from wells showing no visible growth and spreading them on to Sabouraud dextrose agar plates. The plates were then incubated for 72 h and MFCs were determined as the concentrations which killed 95–100% of the inoculum. […]

[1] = Partition coefficient (K) in two-phase HPCCC solvent systems; format: physicochemical; settings: 2 mg extract in 2 mL (1 mL per phase), HPLC-ESI-HRMS
Excerpt: When working with HPCCC, the search for a proper two-phase solvent system has been informed to represent the major part of the work involved in the HPCCC separation. An appropriate two-phase solvent system for HPCCC has to provide a good partition coefficient (0.5 ≤ K ≤ 2.5) for the target compound. […] Additionally, for achieving a good resolution between two closely eluting peaks, the separation factor (α) between the two compounds (α = K2/K1, K2 > K1) should be greater than 1.5 [14, 26]. It is well described that compounds with smaller K values show a poor resolution because they elute closer to the solvent front. On the contrary, those compounds with larger K value are better separated but elute as wider peaks and at later elution times. In the present study, the capacity of different two-phase solvent systems (Table 1) to provide suitable K values of the compounds 1–3 was investigated. The K value is frequently estimated by using HPLC with UV detection, which is calculated by dividing the peak area of the target compound in the upper phase by that of the peak area of the same target compound in the lower phase. However, given that UV chromatogram provided insufficient peak areas for minor muscotoxins, the MS detector was thus used to estimate the K values. By using this approach, the peak area of the molecular ions corresponding to the target compounds were selectively monitored from the base peak chromatogram. As presented in the Table 1, the solvent system 10 (n-hexane, ethyl acetate, ethanol, and water in a ratio of 1:5:1:5) gave suitable K values and a proper separation factor (α) for compounds 2 and 3, as well as a short settling time. […] The improvement of the K value of compound 1 could be achieved by finding out a new solvent system or by modifying the composition of the already selected solvent system. In the present study, the system 10 was acidified by adding acetic acid leading to the system 11 (n-hexane, ethyl acetate, ethanol, water, and acetic acid, 1:5:1:5:1). […] Although the partition coefficients of the target compounds in systems 10 and 11 are strongly correlated, the system 10 ensured a sufficient selectivity (α = 1.5) between the compounds 2 and 3. […] In HPCCC, it is very well established that when the retention of stationary phase is increased, a good chromatographic resolution is achieved. A reduced flow rate of the mobile phase and a high rotational speed of the column favor the retention of the stationary phase inside the HPCCC column. In this study, the flow rate of the mobile phase in the first step and second step of the HPCCC operations was 1 mL/min and the rotational speed was set at 1200 rpm. Moreover, it was observed that a good resolution between the compounds 2 and 3 was achieved when injecting 100 mg of enriched extract.
Different two-phase solvent systems were prepared using n-hexane, ethyl acetate, ethanol, water, and acetic acid in different proportions (Table 1). The prepared solvent systems were investigated for their capacity to provide suitable partition coefficients (K) of the target compounds. In addition, given that the settling time as well as the density difference between the upper and lower phases of each two-phase solvent system are parameters associated with the retention of stationary phase in the column, they were thus estimated and used as selection criteria. For estimating the partition coefficient (Table 1) of the target compound, 2 mg of extract containing the target compounds was dissolved in 2 mL of a given two-phase solvent system (1 mL per each phase). The test tube containing the sample solution was shaken vigorously, and then left, to equilibrate the two phases, for 20 min. Equal volumes of each phase were then analyzed by HPLC-ESI-HRMS to obtain the partition coefficients (K), which were calculated by dividing the peak area of the target compound in the upper phase by the peak area of compound in the lower phase.

Sclerotinia sclerotiorum = assay: Disc diffusion antifungal assay; format: cell-based; settings: S. sclerotiorum, 250–1.5625 µg/disk, Czapek-Dox medium, mycelium growth after 4 days by image analysis, triplicate
Description: Due to the unavailability of enough amounts of isolated compounds, the antifungal activity for all the isolated compounds (1–3) was initially tested only against plant pathogenic fungi Sclerotinia sclerotiorum by determining the minimum inhibitory concentration (MIC) using disc diffusion assay. Compounds (1–3) were dissolved in MeOH at different concentrations and further transferred (20 µL) on layer filter paper targets (size 5 mm) to get desired concentrations of 250–1.5625 µg/disk. Discs were placed at the border of Petri dish (average 35 mm) containing Czapek-Dox medium. The mycelial target of the plant pathogenic fungus S. sclerotiorum (0.5 cm in diameter) was inoculated on the opposite sites of dish. […] The growth of fungal mycelium after 4 days in the presence of the studied compounds was evaluated using digital image analysis. […] The images (TIFF format) were converted by thresholds, and the area of binary objects corresponding to size of grown mycelium was measured and evaluated by software NIS-ELEMENTS AR ver. […] The inhibition of the mycelium growth (inhibition zone in percentages) was calculated as the difference between the measurements (in px) of the total area of fungal mycelium (negative controls) and of the area that is covered with mycelium (treated dishes).

Alternaria alternata = assay: microbe, parasite or virus in culture; format: cell-based; settings: Alternaria alternata; A. alternata BCC020_0609; Muller Hinton broth with 2% glucose, 300–0.0732 µg/mL (control 32–0.0625), 30 °C 48 h, triplicate; least concentration showing any inhibition; read-out: MIC
Description: (§1) Furthermore, compound 1 was evaluated for its antimicrobial activity against five bacterial isolates; S. aureus (CCM3824), B. subtilis (CCM1999), S. sanguinis (CCM4047), P. aeruginosa (CCM1959), E. coli (CCM2024), and eight fungal isolates; C. friedrichii (BCC020_2879), A. fumigatus (BCC020_2845), F. oxysporum (BCC020_2866), T. harzianum (BCC020_0606), B. sorokiniana (BCC020_1571), M. cucumerina (BCC020_2872), C. globosum (BCC020_2527), and A. alternata (BCC020_0609) using broth two-fold microdilution method following the standard protocol. Briefly, for broth microdilution method, the compounds were serially diluted at varying concentrations between 300 and 0.0732 µg/mL in Mueller Hinton broth (for bacteria) and Muller Hinton broth with 2% glucose (for fungi) in 96-well plates. Culture broth (0.1 mL) was added to each well containing the compound. Plates were incubated aerobically at 37 °C for 16 h (bacteria) and 30 °C for 48 h (for fungi). Negative controls were prepared separately with respective organisms in the same culture media with methanol (the dissolving solvent). Positive controls were also prepared separately with respective organisms. Erythromycin (32–0.0625 µg/mL) was used as positive control for S. aureus and S. sanguinis, gentamycin (32–0.0625 µg/mL) was used as positive control for Bacillus subtilis, E. coli, and P. aeruginosa, whereas fluconazole (32–0.0625 µg/mL) was used as positive control for all the fungal isolates. After incubation, the well with the least concentration of the compound showing any inhibition in the growth was taken as the MIC value for the respective organisms. MIC95 was determined as the concentration required to inhibit or kill 95% of bacterial isolates spectroscopically at 600 nm. Minimum fungicidal concentration (MFCs) were determined after 48 h incubation by removing 10 µL of the contents from wells showing no visible growth and spreading them on to Sabouraud dextrose agar plates. The plates were then incubated for 72 h and MFCs were determined as the concentrations which killed 95–100% of the inoculum. All the experiments were done in triplicate.

Aspergillus fumigatus = assay: microbe, parasite or virus in culture; format: cell-based; settings: Aspergillus fumigatus; A. fumigatus BCC020_2845; Muller Hinton broth with 2% glucose, 300–0.0732 µg/mL (control 32–0.0625), 30 °C 48 h, triplicate; least concentration showing any inhibition; read-out: MIC
Description: as §1

Candida friedrichii = assay: microbe, parasite or virus in culture; format: cell-based; settings: Yamadazyma friedrichii; C. friedrichii BCC020_2879; Muller Hinton broth with 2% glucose, 300–0.0732 µg/mL (control 32–0.0625), 30 °C 48 h, triplicate; least concentration showing any inhibition; read-out: MIC
Description: as §1

Chaetomium globosum = assay: microbe, parasite or virus in culture; format: cell-based; settings: Chaetomium globosum; C. globosum BCC020_2527; Muller Hinton broth with 2% glucose, 300–0.0732 µg/mL (control 32–0.0625), 30 °C 48 h, triplicate; least concentration showing any inhibition; read-out: MIC
Description: as §1

Fusarium oxysporum = assay: microbe, parasite or virus in culture; format: cell-based; settings: Fusarium oxysporum; F. oxysporum BCC020_2866; Muller Hinton broth with 2% glucose, 300–0.0732 µg/mL (control 32–0.0625), 30 °C 48 h, triplicate; least concentration showing any inhibition; read-out: MIC
Description: as §1

Monographella cucumerina = assay: microbe, parasite or virus in culture; format: cell-based; settings: Plectosphaerella cucumerina; M. cucumerina BCC020_2872; Muller Hinton broth with 2% glucose, 300–0.0732 µg/mL (control 32–0.0625), 30 °C 48 h, triplicate; least concentration showing any inhibition; read-out: MIC
Description: as §1

Trichoderma harzianum = assay: microbe, parasite or virus in culture; format: cell-based; settings: Trichoderma harzianum; T. harzianum BCC020_0606; Muller Hinton broth with 2% glucose, 300–0.0732 µg/mL (control 32–0.0625), 30 °C 48 h, triplicate; least concentration showing any inhibition; read-out: MIC
Description: as §1

[2] = solvent system 4, n-Hex–EtOAc–EtOH–H2O 7:3:5:5, shaken, 20 min, K = peak area UP/LP
[3] = solvent system 5, n-Hex–EtOAc–EtOH–H2O 6:4:5:5, shaken, 20 min, K = peak area UP/LP
[4] = solvent system 7, n-Hex–EtOAc–EtOH–H2O 4:5:4:5, shaken, 20 min, K = peak area UP/LP
[5] = solvent system 8, n-Hex–EtOAc–EtOH–H2O 3:5:3:5, shaken, 20 min, K = peak area UP/LP
[6] = solvent system 9, n-Hex–EtOAc–EtOH–H2O 2:5:2:5, shaken, 20 min, K = peak area UP/LP
[7] = solvent system 11, n-Hex–EtOAc–EtOH–H2O–AcOH 1:5:1:5:1, shaken, 20 min, K = peak area UP/LP

## gentamycin [reference compound]
Bacillus subtilis
  MIC: 4 µg/mL

## muscotoxin C [compound 1]
[1]; [2]
  Partition Coefficient (K) of Muscotoxins: 0.01
[1]; [3]
  Partition Coefficient (K) of Muscotoxins: 0.01
[1]; [4]
  Partition Coefficient (K) of Muscotoxins: 0.02
[1]; [5]
  Partition Coefficient (K) of Muscotoxins: 0.08
[1]; [6]
  Partition Coefficient (K) of Muscotoxins: 0.40
[1]; [7]
  Partition Coefficient (K) of Muscotoxins: 1.09
Sclerotinia sclerotiorum
  lowest dose to manifest its activity: > 250 µg

## C/C=C1\NC(=O)[C@H](CO)NC(=O)[C@@H]([C@@H](C)CC)NC(=O)[C@H](Cc2ccccc2)NC(=O)[C@@H]2CC(C)CN2C(=O)CNC(=O)[C@@H](CCC(N)=O)NC(=O)C(O)C(CC(O)CCCCC)NC(=O)[C@@H]2CCCN2C(=O)[C@@H]([C@@H](C)CC)NC(=O)[C@H](CO)NC1=O (stereo partly shown) [compound 3, muscotoxin B] (cyclo([Dhb]S[d(aIle)]P[X1][dQ]G[X2]F[d(aIle)]S))
[1]; solvent system 1, n-Hex–EtOH–H2O 10:5:5, shake test tube, equilibrated 20 min, K = peak area upper phase/lower phase
  Partition Coefficient (K) of Muscotoxins: 0.01
[1]; solvent system 2, n-Hex–EtOAc–EtOH–H2O 9:1:5:5, shaken, 20 min, K = peak area UP/LP
  Partition Coefficient (K) of Muscotoxins: 0.01
[1]; [2]
  Partition Coefficient (K) of Muscotoxins: 0.02
[1]; [3]
  Partition Coefficient (K) of Muscotoxins: 0.04
[1]; solvent system 6, n-Hex–EtOAc–EtOH–H2O 5:5:5:5, shaken, 20 min, K = peak area UP/LP
  Partition Coefficient (K) of Muscotoxins: 0.01
[1]; [4]
  Partition Coefficient (K) of Muscotoxins: 0.05
[1]; [5]
  Partition Coefficient (K) of Muscotoxins: 0.27
[1]; [6]
  Partition Coefficient (K) of Muscotoxins: 1.22
[1]; solvent system 10, n-Hex–EtOAc–EtOH–H2O 1:5:1:5, shaken, 20 min, K = peak area UP/LP
  Partition Coefficient (K) of Muscotoxins: 1.41
[1]; [7]
  Partition Coefficient (K) of Muscotoxins: 2.45

## OC(Cn1cncn1)(Cn1cncn1)c1ccc(F)cc1F [fluconazole, reference compound]
Alternaria alternata
  MIC: 2 µg/mL (≈ 6.53 µM)
Aspergillus fumigatus
  MIC: 32 µg/mL (≈ 104 µM)
Candida friedrichii
  MIC: 8 µg/mL (≈ 26.1 µM)
Chaetomium globosum
  MIC: 2 µg/mL (≈ 6.53 µM)
Fusarium oxysporum
  MIC: 8 µg/mL (≈ 26.1 µM)
Monographella cucumerina
  MIC: 2 µg/mL (≈ 6.53 µM)
Trichoderma harzianum
  MIC: 4 µg/mL (≈ 13.1 µM)
